Our source for the AC50 values is ChEMBL document CHEMBL5291721, “A preclinical secondary pharmacology resource illuminates target-adverse drug reaction associations of marketed drugs” (Nat Commun, 2023).

The target in assay [1] is T1, Alpha-1A adrenergic receptor (Homo sapiens, UniProt P35348).
T1 sequence (P35348 whole entry): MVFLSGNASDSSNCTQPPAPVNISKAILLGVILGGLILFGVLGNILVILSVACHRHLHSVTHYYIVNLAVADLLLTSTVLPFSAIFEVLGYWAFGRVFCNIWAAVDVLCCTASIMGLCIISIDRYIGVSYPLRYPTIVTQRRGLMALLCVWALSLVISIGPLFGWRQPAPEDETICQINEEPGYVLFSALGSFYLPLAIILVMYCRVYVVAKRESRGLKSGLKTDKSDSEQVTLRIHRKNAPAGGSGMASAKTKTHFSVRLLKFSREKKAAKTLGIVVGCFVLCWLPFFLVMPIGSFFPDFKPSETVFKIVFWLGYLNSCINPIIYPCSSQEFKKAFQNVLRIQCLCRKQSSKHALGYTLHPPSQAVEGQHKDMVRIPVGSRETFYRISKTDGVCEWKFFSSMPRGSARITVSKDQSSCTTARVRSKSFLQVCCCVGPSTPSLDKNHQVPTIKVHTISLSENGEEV
The assay is classed as functional, cell-based.

The target of assay [2] is T1, Alpha-1A adrenergic receptor. The assay is classed as functional, cell-based. This is another data set of the same source.
Assay [3] addresses T2, Alpha-2A adrenergic receptor (Homo sapiens, UniProt P08913).
T2 sequence (P08913 whole entry): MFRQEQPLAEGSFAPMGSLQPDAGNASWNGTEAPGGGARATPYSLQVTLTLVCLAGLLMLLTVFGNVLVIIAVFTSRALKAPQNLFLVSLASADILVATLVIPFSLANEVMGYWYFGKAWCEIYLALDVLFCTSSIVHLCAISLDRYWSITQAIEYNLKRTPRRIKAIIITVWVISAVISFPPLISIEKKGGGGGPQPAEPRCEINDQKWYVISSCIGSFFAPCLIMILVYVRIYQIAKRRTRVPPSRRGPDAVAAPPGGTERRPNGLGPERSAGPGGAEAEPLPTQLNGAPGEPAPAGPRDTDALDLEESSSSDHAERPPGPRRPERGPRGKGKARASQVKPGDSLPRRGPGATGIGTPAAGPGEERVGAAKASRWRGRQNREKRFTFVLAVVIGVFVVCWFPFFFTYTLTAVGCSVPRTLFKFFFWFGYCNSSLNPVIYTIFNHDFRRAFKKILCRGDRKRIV

Assay [4] addresses 5-hydroxytryptamine receptor 2B (Homo sapiens, UniProt P41595). The assay is classed as functional, cell-based.
The target in assay [5] is Vascular endothelial growth factor receptor 2 (Homo sapiens, UniProt P35968). The format is functional.
Sequence of Vascular endothelial growth factor receptor 2 (P35968 whole entry): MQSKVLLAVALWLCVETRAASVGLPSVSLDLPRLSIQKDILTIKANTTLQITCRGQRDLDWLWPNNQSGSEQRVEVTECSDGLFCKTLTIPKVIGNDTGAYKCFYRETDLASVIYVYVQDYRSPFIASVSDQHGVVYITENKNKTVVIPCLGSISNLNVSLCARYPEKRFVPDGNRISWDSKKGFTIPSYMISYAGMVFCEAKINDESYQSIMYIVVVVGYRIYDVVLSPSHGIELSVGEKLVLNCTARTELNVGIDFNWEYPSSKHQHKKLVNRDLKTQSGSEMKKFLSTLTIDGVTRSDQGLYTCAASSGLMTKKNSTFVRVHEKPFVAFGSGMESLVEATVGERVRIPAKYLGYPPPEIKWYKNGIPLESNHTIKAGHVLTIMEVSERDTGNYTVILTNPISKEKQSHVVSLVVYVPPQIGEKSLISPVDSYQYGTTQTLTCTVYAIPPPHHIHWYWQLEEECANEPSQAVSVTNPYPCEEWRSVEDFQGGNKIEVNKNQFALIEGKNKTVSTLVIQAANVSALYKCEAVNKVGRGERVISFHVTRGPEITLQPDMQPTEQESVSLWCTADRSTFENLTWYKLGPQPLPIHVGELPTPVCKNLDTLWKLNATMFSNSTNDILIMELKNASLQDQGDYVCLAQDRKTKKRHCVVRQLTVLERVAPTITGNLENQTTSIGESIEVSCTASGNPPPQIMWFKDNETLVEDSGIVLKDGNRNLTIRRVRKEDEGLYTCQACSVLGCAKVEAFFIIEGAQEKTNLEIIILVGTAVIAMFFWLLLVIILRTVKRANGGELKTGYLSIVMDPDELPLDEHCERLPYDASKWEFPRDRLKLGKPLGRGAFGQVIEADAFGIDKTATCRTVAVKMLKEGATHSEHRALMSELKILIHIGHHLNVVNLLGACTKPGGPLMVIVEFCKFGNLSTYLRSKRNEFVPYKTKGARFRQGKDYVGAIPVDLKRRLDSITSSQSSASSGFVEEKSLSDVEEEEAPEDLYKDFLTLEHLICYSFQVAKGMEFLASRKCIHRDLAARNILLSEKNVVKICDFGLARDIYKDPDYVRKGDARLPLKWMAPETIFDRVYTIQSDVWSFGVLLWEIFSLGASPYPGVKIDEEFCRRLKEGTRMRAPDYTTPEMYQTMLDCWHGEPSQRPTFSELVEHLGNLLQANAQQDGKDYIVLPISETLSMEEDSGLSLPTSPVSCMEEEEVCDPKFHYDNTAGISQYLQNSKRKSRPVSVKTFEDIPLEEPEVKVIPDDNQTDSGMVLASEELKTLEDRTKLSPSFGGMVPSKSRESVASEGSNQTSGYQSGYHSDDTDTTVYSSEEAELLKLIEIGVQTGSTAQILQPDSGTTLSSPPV
Assay [6] deals with T3, Amine oxidase [flavin-containing] A (Homo sapiens, UniProt P21397).
T3 sequence (P21397 whole entry): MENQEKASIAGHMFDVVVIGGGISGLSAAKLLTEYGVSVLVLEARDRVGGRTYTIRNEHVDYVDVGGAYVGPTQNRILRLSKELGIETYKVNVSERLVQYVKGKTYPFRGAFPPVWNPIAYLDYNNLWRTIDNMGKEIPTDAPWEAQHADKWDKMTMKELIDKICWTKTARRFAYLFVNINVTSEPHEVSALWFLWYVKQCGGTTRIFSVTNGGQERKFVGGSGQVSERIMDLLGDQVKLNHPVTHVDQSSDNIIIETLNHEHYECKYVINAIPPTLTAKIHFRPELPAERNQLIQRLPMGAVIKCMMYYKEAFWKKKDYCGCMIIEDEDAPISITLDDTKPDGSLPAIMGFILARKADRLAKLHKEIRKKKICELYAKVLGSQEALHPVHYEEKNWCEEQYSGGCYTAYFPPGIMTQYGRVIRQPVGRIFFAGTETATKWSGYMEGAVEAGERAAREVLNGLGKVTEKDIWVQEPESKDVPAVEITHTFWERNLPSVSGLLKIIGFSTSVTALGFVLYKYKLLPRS
The assay is classed as functional.

The target of assay [7] is Sodium-dependent noradrenaline transporter (Homo sapiens, UniProt P23975).
Sequence of Sodium-dependent noradrenaline transporter (P23975 whole entry): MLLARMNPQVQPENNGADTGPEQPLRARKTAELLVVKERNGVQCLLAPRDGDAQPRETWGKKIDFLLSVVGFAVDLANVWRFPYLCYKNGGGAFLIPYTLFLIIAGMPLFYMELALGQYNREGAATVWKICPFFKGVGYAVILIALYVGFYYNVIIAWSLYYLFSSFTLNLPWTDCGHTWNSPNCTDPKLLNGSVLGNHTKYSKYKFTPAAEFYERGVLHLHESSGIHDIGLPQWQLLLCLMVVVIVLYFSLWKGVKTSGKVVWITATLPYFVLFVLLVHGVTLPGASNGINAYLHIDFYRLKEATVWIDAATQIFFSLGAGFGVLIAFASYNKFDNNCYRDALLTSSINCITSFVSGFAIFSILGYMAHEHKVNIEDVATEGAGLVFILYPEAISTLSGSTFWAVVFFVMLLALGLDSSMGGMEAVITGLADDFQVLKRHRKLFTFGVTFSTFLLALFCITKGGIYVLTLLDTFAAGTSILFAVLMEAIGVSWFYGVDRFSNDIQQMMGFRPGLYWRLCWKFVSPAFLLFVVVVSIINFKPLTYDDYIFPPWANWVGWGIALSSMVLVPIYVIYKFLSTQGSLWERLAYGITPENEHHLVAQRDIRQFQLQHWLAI
The target in assay [8] is T4, Gastric inhibitory polypeptide receptor (Homo sapiens, UniProt P48546).
T4 sequence (P48546 whole entry): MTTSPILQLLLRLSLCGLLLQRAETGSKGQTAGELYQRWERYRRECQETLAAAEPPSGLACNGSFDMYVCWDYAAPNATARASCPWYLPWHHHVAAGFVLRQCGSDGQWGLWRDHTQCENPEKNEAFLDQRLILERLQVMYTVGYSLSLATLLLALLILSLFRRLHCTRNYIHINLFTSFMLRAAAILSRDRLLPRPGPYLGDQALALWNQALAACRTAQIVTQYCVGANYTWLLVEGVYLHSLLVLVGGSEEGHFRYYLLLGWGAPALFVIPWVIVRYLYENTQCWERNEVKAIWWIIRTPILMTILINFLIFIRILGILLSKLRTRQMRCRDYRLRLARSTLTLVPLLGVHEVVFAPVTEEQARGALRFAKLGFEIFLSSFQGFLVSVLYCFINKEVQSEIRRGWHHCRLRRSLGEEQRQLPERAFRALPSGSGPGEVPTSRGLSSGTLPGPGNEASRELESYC

For assay [9], the target named is T5, Muscarinic acetylcholine receptor M5 (Homo sapiens, UniProt P08912).
T5 sequence (P08912 whole entry): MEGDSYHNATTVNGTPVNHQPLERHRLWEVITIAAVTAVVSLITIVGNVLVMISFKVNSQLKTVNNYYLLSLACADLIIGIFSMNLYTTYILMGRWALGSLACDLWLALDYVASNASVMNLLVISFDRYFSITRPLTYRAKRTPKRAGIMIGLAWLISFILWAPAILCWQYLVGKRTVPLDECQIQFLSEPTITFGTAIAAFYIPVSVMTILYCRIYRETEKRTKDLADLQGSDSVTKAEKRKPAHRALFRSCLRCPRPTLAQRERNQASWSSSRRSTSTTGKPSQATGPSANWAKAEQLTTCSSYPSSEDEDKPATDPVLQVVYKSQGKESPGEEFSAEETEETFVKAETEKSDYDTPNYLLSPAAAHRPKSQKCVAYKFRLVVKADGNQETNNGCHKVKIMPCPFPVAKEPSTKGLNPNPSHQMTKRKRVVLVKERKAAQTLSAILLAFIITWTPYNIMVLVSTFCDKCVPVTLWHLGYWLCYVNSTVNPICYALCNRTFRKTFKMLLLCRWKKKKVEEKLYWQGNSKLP
Note: assay procedure not described here.

Sequence of 5-hydroxytryptamine receptor 2B (P41595 whole entry): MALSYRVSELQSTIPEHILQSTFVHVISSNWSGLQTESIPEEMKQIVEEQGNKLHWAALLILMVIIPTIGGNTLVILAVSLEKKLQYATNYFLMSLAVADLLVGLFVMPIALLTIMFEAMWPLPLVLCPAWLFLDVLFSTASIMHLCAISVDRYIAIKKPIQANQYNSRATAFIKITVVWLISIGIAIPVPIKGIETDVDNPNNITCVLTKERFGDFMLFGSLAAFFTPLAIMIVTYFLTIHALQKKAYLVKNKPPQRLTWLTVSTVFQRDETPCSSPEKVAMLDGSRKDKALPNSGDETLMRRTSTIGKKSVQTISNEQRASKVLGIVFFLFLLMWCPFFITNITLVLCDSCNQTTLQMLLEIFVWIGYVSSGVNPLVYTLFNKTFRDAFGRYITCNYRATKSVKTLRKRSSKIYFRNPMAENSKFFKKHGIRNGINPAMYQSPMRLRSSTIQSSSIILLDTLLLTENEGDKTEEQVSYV

One may read the AC50 as the concentration at which the activity in the assay is half-maximal. `O=C(O)CCCCC1CCSS1` (stereo not drawn) [LIPOIC ACID, ALPHA]: the AC50 in [1], in [2], in assay [3], in assay [4], in [5] and in assay [6] was more than 30 µM throughout. Also, the AC50 in [7] was more than 30 µM.
As to `CC(=O)OCC(=O)[C@@]1(O)[C@H](C)C[C@H]2[C@@H]3CCC4=CC(=O)C=C[C@]4(C)[C@@]3(F)[C@@H](O)C[C@@]21C` [DEXAMETHASONE ACETATE], the AC50 in [8] was more than 30 µM.
In the case of `Cn1c(=O)cc(N2CCC[C@@H](N)C2)n(Cc2ccccc2C#N)c1=O` [ALOGLIPTIN], the AC50 in assay [9] was more than 10 µM; in assay [8] it was more than 30 µM.
Consider `Nc1c2ccccc2nc2ccccc12` [AMINACRINE], for which the AC50 was more than 30 µM in assay [1]; 9.77 µM in assay [2]; 16.9 µM in assay [3]; more than 30 µM in [4]; more than 30 µM in assay [5]; more than 30 µM in assay [6]. In addition, in assay [7], the AC50 is 2.95 µM.
